For assay [1], the system named is K. pneumoniae DSM-30104. Type of assay: cell-based, Klebsiella pneumoniae. As for the experimental part: (§1) The antibacterial activity of novel darobactins was determined by the evaluation of the minimum inhibitory concentration (MIC) as previously described for crude extracts and for pure darobactin analogues.[12]
The test system of assay [2] is HepG2.
The subject of assay [3] is E. coli ATCC25922. The class given is cell-based, Escherichia coli. The protocol: as §1
The subject of assay [4] is A. baumannii DSM-30008. The class given is cell-based, Acinetobacter baumannii. As for the experimental part:
as §1

Assay [5] deals with T1, EcBamA (E. coli BamA barrel domain) (Escherichia coli, UniProt P0A940, C690S/C700S).
T1 construct: The E. coli BamA barrel domain (BamA-β) (residues 421–810, C690S, C700S); made in house
Kind of assay: Microscale thermophoresis (MST) KD determination. Type of assay: binding. As for the experimental part:
As an alternative to the previously published methods using isothermal titration calorimetry (ITC), we established a KD determination assay using microscale thermophoresis (MST) to enable higher throughput.
Microscale thermophoresis (MST) (serial no. 201709-BR-N024, Monolith NT.115 Micro Scale Thermophoresis, NanoTemper Technologies GmbH) was performed according to the standard protocol from the manufacturer NanoTemper Technologies GmbH using a Monolith His-Tag Labeling Kit RED-tris-NTA second-generation kit. The buffer used was HEPES (50 mM), pH 7.6, MgCl2 (5 mM), and Tween (0.05%). […] A 1:1 dilution of the ligand over 16 samples was performed using a stock of ligand (in water) diluted in HEPES buffer. Nonhydrophobic capillary tubes were used. A pretest to check for the labeling and compound fluorescence was performed for every sample followed by a binding affinity (KD) determination. Each sample was measured after 15 min of incubation at RT and analyzed in MO Control version 1.6.

For assay [6], the system named is P. aeruginosa PA01. The class given is cell-based, Pseudomonas aeruginosa. The protocol: as §1
For assay [7], the system named is Gram-negative bacteria. Particulars: result in words; cited from earlier work.
The test system of assay [8] is P. aeruginosa 84389 (MDR clinical isolate). Nature of the assay: microbe, parasite or virus in culture. Particulars: Pseudomonas aeruginosa, read-out: MIC P. aeruginosa 84389. As for the experimental part:
as §1

For assay [9], the system named is P. aeruginosa 83979 (MDR clinical isolate). Kind of assay: microbe, parasite or virus in culture. Particulars: Pseudomonas aeruginosa. As for the experimental part:
as §1

In brackets after ≈: the same amount, converted by molar mass. Where two headings read alike, the source gives them in different places.

Usually Kd stands for the constant that tells how readily two partners part at equilibrium. On to `C[C@@H](O)[C@@H]1NC(=O)[C@H]2NC(=O)[C@H](CCC(=O)O)NC(=O)[C@@H](N)Cc3c[nH]c4c(cccc34)O[C@@H]2c2c[nH]c3cc(ccc23)[C@H](CCCN)[C@@H](C(=O)N[C@@H](CCCNC(=N)N)C(=O)N[C@@H](Cc2c[nH]c3ccccc23)C(=O)O)NC1=O` [D58], for which, in assay [1] (pure compound, n = 2, Table 2), the “MIC K. pneumoniae [DSM-30104]” value came to 16 µg/mL (≈ 14.5 µM). Further, the “IC50 HepG2” value in assay [2] (cytotoxicity, n = 2) is above 37 µg/mL. Further, the “MIC E. coli [ATCC25922]” value in assay [3] (pure compound, n = 2, Table 2) was found to be 8 µg/mL (≈ 7.25 µM). Moreover, in [4] (pure compound, n = 2, Table 2), the “MIC A. baumannii [DSM-30008]” value worked out at 2 µg/mL (≈ 1.81 µM). Binding in [5] was put at a Kd of 5.1 ± 3.7 µM. In addition, the “MIC P. aeruginosa [PA01]” value in assay [6] (pure compound, n = 2, Table 2) came to 8 µg/mL (≈ 7.25 µM).
`C[C@@H](O)[C@@H]1NC(=O)[C@H]2NC(=O)[C@H](CCC(N)=O)NC(=O)[C@@H](N)Cc3c[nH]c4c(cccc34)O[C@@H]2c2c[nH]c3cc(ccc23)[C@H](CCCN)[C@@H](C(=O)N[C@@H](CCCNC(=N)N)C(=O)N[C@@H](Cc2c[nH]c3ccccc23)C(=O)O)NC1=O` [D61]: the “MIC K. pneumoniae [DSM-30104]” value in [1] (pure compound, n = 2, Table 2) was 8 µg/mL (≈ 7.26 µM). The “IC50 HepG2” value in assay [2] (cytotoxicity, n = 2) was above 37 µg/mL. Moreover, in assay [3] (pure compound, n = 2, Table 2), the “MIC E. coli [ATCC25922]” value stood at 2 µg/mL (≈ 1.81 µM). Further, the “MIC A. baumannii [DSM-30008]” value in assay [4] (pure compound, n = 2, Table 2) was 0.5 µg/mL (≈ 0.454 µM). For the same molecule, the affinity in [5], expressed as Kd, was 3.6 ± 0.6 µM. Also, in assay [6] (pure compound, n = 2, Table 2), the “MIC P. aeruginosa [PA01]” value was 4 µg/mL (≈ 3.63 µM).
In the case of `C[C@@H](O)[C@@H]1NC(=O)[C@H]2NC(=O)[C@H](CO)NC(=O)[C@@H](N)Cc3c[nH]c4c(cccc34)O[C@@H]2c2c[nH]c3cc(ccc23)[C@H](CCCN)[C@@H](C(=O)N[C@@H](CCCNC(=N)N)C(=O)N[C@@H](Cc2c[nH]c3ccccc23)C(=O)O)NC1=O` [D64], the “MIC K. pneumoniae [DSM-30104]” value in [1] (DSM-30104) is 16 µg/mL (≈ 15.1 µM). Further, the “IC50 HepG2” value in assay [2] is above 37 µg/mL. Also, the “MIC E. coli [ATCC25922]” value in [3] (ATCC25922) stood at 4 µg/mL (≈ 3.77 µM). The “MIC A. baumannii [DSM-30008]” value in [4] (DSM-30008) was 0.5 µg/mL (≈ 0.471 µM). The same molecule gave a Kd in [5] of 5.1 ± 0.7 µM. Besides, the “MIC P. aeruginosa [PA01]” value in [6] came out at 2 µg/mL (≈ 1.88 µM).
Regarding `N=C(N)NCC[C@H]1c2ccc3c(c[nH]c3c2)[C@H]2Oc3cccc4c(c[nH]c34)C[C@H](N)C(=O)N[C@@H](CC(N)=O)C(=O)N[C@@H]2C(=O)N[C@@H](CO)C(=O)N[C@@H]1C(=O)N[C@@H](CO)C(=O)N[C@@H](Cc1ccccc1)C(=O)O` [DD, darobactin D, reference compound], the “MIC K. pneumoniae [DSM-30104]” value in assay [1] (DSM-30104) lay in the range of 8 to 16 µg/mL. Also, the “MIC E. coli [ATCC25922]” value in assay [3] (ATCC25922) is 1 µg/mL (≈ 1.01 µM). In addition, the “MIC A. baumannii [DSM-30008]” value in [4] (DSM-30008) lay in the range of 4 to 8 µg/mL. Further, the “MIC P. aeruginosa [PA01]” value in assay [6] came out at 2 µg/mL (≈ 2.01 µM). For the same molecule, the published antibacterial activity result in [7] is “inactive”.
As to `C[C@@H](O)[C@H]1C(=O)N2C(C(=O)O)=C(S[C@@H]3CN[C@H](C(=O)N(C)C)C3)[C@H](C)[C@H]12` [meropenem], the MIC in [8] was 16 µg/mL (≈ 41.7 µM); in assay [9] (BAL, read-out: resistance profile, MIC, P. aeroginosa 83979), above 16 µg/mL; in assay [9] (read-out: MIC P. aeruginosa 83979) it was 16 µg/mL (≈ 41.7 µM).
With “darobactin E (WSWSKSF) [DE, native darobactin analogue, core peptide WSWSKSF]”, the published antibacterial activity result in [7] is “rather inactive”.
